Tested on: BJAB cells
Experiment: BJAB cell proliferation (Cell Titer Glo)
Format: cell-based
Conditions: Homo sapiens, read-out: EC50
Outline: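 BJAB cells exposed to serially diluted compounds (0.1% DMSO final) for about 72 h at 37 °C. Proliferation read by Cell Titer Glo luminescence as percent of untreated controls; EC50 from non-linear regression of dose-response data.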

Question: With `Cc1nn(-c2nc(-c3ccc(Cl)c(Cl)c3)c(SC(C)C)s2)c(C(N)=O)c1-c1cc(C(F)(F)F)cc(C(F)(F)F)c1` [Compound 73, 4-(3,5-bis(trifluoromethyl)phenyl)-1-(4-(3,4-dichlorophenyl)-5-(isopropylthio)thiazol-2-yl)-3-methyl-1H-pyrazole-5-carboxamide] as the molecule, how does the EC50 read?
Answer: Its EC50 is over 40 µM.

Question: With `Cc1cc(C)nc(-c2c(C)nn(-c3nc(-c4ccc(Cl)c(Cl)c4)c(SC(C)C)s3)c2C(=O)O)n1` [Compound 74, 1-(4-(3,4-dichlorophenyl)-5-(isopropylthio)thiazol-2-yl)-4-(4,6-dimethylpyrimidin-2-yl)-3-methyl-1H-pyrazole-5-carboxylic acid] as the molecule, how does the EC50 read?
Answer: The EC50 was 25 to 50 µM.

Question: `Cc1nn(-c2nc(-c3ccc(Cl)c(Cl)c3)c(SC(C)C)s2)c(C(=O)NCc2ccccn2)c1-c1cc(C(F)(F)F)cc(C(F)(F)F)c1` [Compound 75, 4-(3,5-bis(trifluoromethyl)phenyl)-1-(4-(3,4-dichlorophenyl)-5-(isopropylthio)thiazol-2-yl)-3-methyl-N-(pyridin-2-ylmethyl)-1H-pyrazole-5-carboxamide] was tested. Which EC50 did it give?
Answer: Its EC50 is over 40 µM.

Question: For `Cc1nn(-c2nc(-c3ccc(Cl)c(Cl)c3)c(SC(C)C)s2)c(C(=O)N(C)CCO)c1-c1cc(C(F)(F)F)cc(C(F)(F)F)c1` [Compound 76, 4-(3,5-bis(trifluoromethyl)phenyl)-1-(4-(3,4-dichlorophenyl)-5-(isopropylthio)thiazol-2-yl)-N-(2-hydroxyethyl)-N,3-dimethyl-1H-pyrazole-5-carboxamide], which EC50 is on record?
Answer: The EC50 was over 40 µM.

Question: Which EC50 does the source give for `Cc1nn(-c2nc(-c3ccc(Cl)c(Cl)c3)c(SC(C)C)s2)c(C(=O)N(C)c2nnc(C(F)(F)F)s2)c1-c1cc(C(F)(F)F)cc(C(F)(F)F)c1` [Compound 77, 4-(3,5-bis(trifluoromethyl)phenyl)-1-(4-(3,4-dichlorophenyl)-5-(isopropylthio)thiazol-2-yl)-N,3-dimethyl-N-(5-(trifluoromethyl)-1,3,4-thiadiazol-2-yl)-1H-pyrazole-5-carboxamide] here?
Answer: The EC50 was over 40 µM.

Question: Which EC50 does the source give for `CCN(CC)C1CCN(C(=O)c2c(-c3cc(C(F)(F)F)cc(C(F)(F)F)c3)c(C)nn2-c2nc(-c3ccc(Cl)c(Cl)c3)c(SC(C)C)s2)C1` (stereo not shown) [Compound 78, (4-(3,5-bis(trifluoromethyl)phenyl)-1-(4-(3,4-dichlorophenyl)-5-(isopropylthio)thiazol-2-yl)-3-methyl-1H-pyrazol-5-yl)(3-(diethylamino)pyrrolidin-1-yl)methanone] here?
Answer: Its EC50 is over 40 µM.

Question: For `Cc1nn(-c2nc(-c3ccc(Cl)c(Cl)c3)c(SC(C)C)s2)c(C(=O)O)c1-c1cnccn1` [Compound 79, 1-(4-(3,4-dichlorophenyl)-5-(isopropylthio)thiazol-2-yl)-3-methyl-4-(pyrazin-2-yl)-1H-pyrazole-5-carboxylic Acid], which EC50 is on record?
Answer: The EC50 was 10 to 25 µM.

Question: `Cc1cc(C#N)cc(-c2c(C)nn(-c3nc(-c4ccc(Cl)c(Cl)c4)c(SC(C)C)s3)c2C(=O)O)c1` [Compound 80, 4-(3-cyano-5-methylphenyl)-1-(4-(3,4-dichlorophenyl)-5-(isopropylthio)thiazol-2-yl)-3-methyl-1H-pyrazole-5-carboxylic Acid] was tested. Which EC50 did it give?
Answer: The EC50 was 1 to 5 µM.

Question: With `Cc1nn(-c2nc(-c3ccc(Cl)c(Cl)c3)c(SC(C)C)s2)c(C(=O)Nc2nnn[nH]2)c1-c1cc(C(F)(F)F)cc(C(F)(F)F)c1` [Compound 81, 4-(3,5-bis(trifluoromethyl)phenyl)-1-(4-(3,4-dichlorophenyl)-5-(isopropylthio)thiazol-2-yl)-3-methyl-N-(1H-tetrazol-5-yl)-1H-pyrazole-5-carboxamide] as the molecule, how does the EC50 read?
Answer: Its EC50 is over 40 µM.

Question: For `Cc1nnc(-c2c(C)nn(-c3nc(-c4ccc(Cl)c(Cl)c4)c(SC(C)C)s3)c2C(=O)O)s1` [Compound 82, 1-(4-(3,4-dichlorophenyl)-5-(isopropylthio)thiazol-2-yl)-3-methyl-4-(5-methyl-1,3,4-thiadiazol-2-yl)-1H-pyrazole-5-carboxylic acid], which EC50 is on record?
Answer: The EC50 was over 40 µM.

Question: `COc1cc(C#N)cc(-c2c(C)nn(-c3nc(-c4ccc(Cl)c(Cl)c4)c(SC(C)C)s3)c2C(=O)O)c1` [Compound 83, 4-(3-cyano-5-methoxyphenyl)-1-(4-(3,4-dichlorophenyl)-5-(isopropylthio)thiazol-2-yl)-3-methyl-1H-pyrazole-5-carboxylic acid] was tested. Which EC50 did it give?
Answer: The EC50 was 5 to 10 µM.

Question: How did the EC50 turn out when `Cc1nn(-c2nc(-c3ccc(Cl)c(Cl)c3)c(SC(C)C)s2)c(C(=O)O)c1-c1cc(C#N)cc(C(F)(F)F)c1` [Compound 84, 4-(3-cyano-5-(trifluoromethyl)phenyl)-1-(4-(3,4-dichlorophenyl)-5-(isopropylthio)thiazol-2-yl)-3-methyl-1H-pyrazole-5-carboxylic Acid] was run?
Answer: Its EC50 is 1 to 5 µM.

Question: With `COCc1cccc(-c2c(C)nn(-c3nc(-c4ccc(Cl)c(Cl)c4)c(SC(C)C)s3)c2C(=O)O)c1` [Compound 85, 1-(4-(3,4-dichlorophenyl)-5-(isopropylthio)thiazol-2-yl)-4-(3-(methoxymethyl)phenyl)-3-methyl-1H-pyrazole-5-carboxylic acid] as the molecule, how does the EC50 read?
Answer: The EC50 was 5 to 10 µM.

Question: `Cc1nn(-c2nc(-c3ccc(Cl)c(Cl)c3)c(SC(C)C)s2)c(C(=O)O)c1-c1c(Cc2ccccc2)noc1C` [Compound 86, 4-(3-benzyl-5-methylisoxazol-4-yl)-1-(4-(3,4-dichlorophenyl)-5-(isopropylthio)thiazol-2-yl)-3-methyl-1H-pyrazole-5-carboxylic Acid] was tested. Which EC50 did it give?
Answer: The EC50 was 1 to 5 µM.

Question: How did the EC50 turn out when `Cc1nn(-c2nc(-c3ccc(Cl)c(Cl)c3)c(SC(C)C)s2)c(C(=O)O)c1-c1cccc(CN(C)C)c1` [Compound 87, 1-(4-(3,4-dichlorophenyl)-5-(isopropylthio)thiazol-2-yl)-4-(3-((dimethylamino)methyl)phenyl)-3-methyl-1H-pyrazole-5-carboxylic acid] was run?
Answer: The EC50 was over 25 µM.

Question: `Cc1nn(-c2nc(-c3ccc(Cl)c(Cl)c3)c(SC(C)C)s2)c(CO)c1-c1ccccc1` [Compound 88, (1-(4-(3,4-dichlorophenyl)-5-(isopropylthio)thiazol-2-yl)-3-methyl-4-phenyl-1H-pyrazol-5-yl)MeOH] was tested. Which EC50 did it give?
Answer: The EC50 was over 25 µM.

Question: With `Cc1nn(-c2nc(-c3ccc(Cl)c(Cl)c3)c(SC(C)C)s2)c(C(=O)O)c1-c1ccc2c(c1)OCO2` [Compound 89, 4-(benzo[d][1,3]dioxol-5-yl)-1-(4-(3,4-dichlorophenyl)-5-(isopropylthio)thiazol-2-yl)-3-methyl-1H-pyrazole-5-carboxylic Acid] as the molecule, how does the EC50 read?
Answer: The EC50 was 5 to 10 µM.

Question: Which EC50 does the source give for `COc1ccnc(-c2c(C)nn(-c3nc(-c4ccc(Cl)c(Cl)c4)c(SC(C)C)s3)c2C(=O)O)n1` [Compound 90, 1-(4-(3,4-dichlorophenyl)-5-(isopropylthio)thiazol-2-yl)-4-(4-methoxypyrimidin-2-yl)-3-methyl-1H-pyrazole-5-carboxylic acid] here?
Answer: Its EC50 is over 25 µM.

Question: For `Cc1nn(-c2nc(-c3ccc(Cl)c(Cl)c3)c(SC(C)C)s2)c(C(=O)O)c1-c1cnsc1` [Compound 91, 1-(4-(3,4-dichlorophenyl)-5-(isopropylthio)thiazol-2-yl)-4-(isothiazol-4-yl)-3-methyl-1H-pyrazole-5-carboxylic acid], which EC50 is on record?
Answer: Its EC50 is 5 to 10 µM.

Question: With `Cc1cc(-c2c(C)nn(-c3nc(-c4ccc(Cl)c(Cl)c4)c(SC(C)C)s3)c2C(=O)O)sn1` [Compound 92, 1-(4-(3,4-dichlorophenyl)-5-(isopropylthio)thiazol-2-yl)-3-methyl-4-(3-methylisothiazol-5-yl)-1H-pyrazole-5-carboxylic Acid] as the molecule, how does the EC50 read?
Answer: Its EC50 is 1 to 5 µM.

Question: Which EC50 does the source give for `Cc1nn(-c2nc(-c3ccc(Cl)c(Cl)c3)c(SC(C)C)s2)c(C(=O)O)c1-c1ccn(C)c(=O)c1` [Compound 93, 1-(4-(3,4-dichlorophenyl)-5-(isopropylthio)thiazol-2-yl)-3-methyl-4-(1-methyl-2-oxo-1,2-dihydropyridin-4-yl)-1H-pyrazole-5-carboxylic acid] here?
Answer: Its EC50 is over 25 µM.

Question: Which EC50 does the source give for `Cc1nn(-c2nc(-c3ccc(Cl)c(Cl)c3)c(SC(C)C)s2)c(C(=O)O)c1-c1cc(C)c(=O)n(C)c1` [Compound 94, 1-(4-(3,4-dichlorophenyl)-5-(isopropylthio)thiazol-2-yl)-4-(1,5-dimethyl-6-oxo-1,6-dihydropyridin-3-yl)-3-methyl-1H-pyrazole-5-carboxylic Acid] here?
Answer: Its EC50 is over 25 µM.

Question: Which EC50 does the source give for `Cc1cc(F)cc(-c2c(C)nn(-c3nc(-c4ccc(Cl)c(Cl)c4)c(SC(C)C)s3)c2C(=O)O)c1` [Compound 95, 1-(4-(3,4-dichlorophenyl)-5-(isopropylthio)thiazol-2-yl)-4-(3-fluoro-5-methylphenyl)-3-methyl-1H-pyrazole-5-carboxylic Acid] here?
Answer: The EC50 was 1 to 5 µM.

Question: `Cc1cc(O)cc(-c2c(C)nn(-c3nc(-c4ccc(Cl)c(Cl)c4)c(SC(C)C)s3)c2C(=O)O)c1` [Compound 96, 1-(4-(3,4-dichlorophenyl)-5-(isopropylthio)thiazol-2-yl)-4-(3-hydroxy-5-methylphenyl)-3-methyl-1H-pyrazole-5-carboxylic acid] was tested. Which EC50 did it give?
Answer: The EC50 was over 25 µM.

Question: For `Cc1cc(OC(C)C)cc(-c2c(C)nn(-c3nc(-c4ccc(Cl)c(Cl)c4)c(SC(C)C)s3)c2C(=O)O)c1` [Compound 97, 1-(4-(3,4-dichlorophenyl)-5-(isopropylthio)thiazol-2-yl)-4-(3-isopropoxy-5-methylphenyl)-3-methyl-1H-pyrazole-5-carboxylic Acid], which EC50 is on record?
Answer: The EC50 was 1 to 5 µM.

Question: With `Cc1cc(OC2COC2)cc(-c2c(C)nn(-c3nc(-c4ccc(Cl)c(Cl)c4)c(SC(C)C)s3)c2C(=O)O)c1` [Compound 98, 1-(4-(3,4-dichlorophenyl)-5-(isopropylthio)thiazol-2-yl)-3-methyl-4-(3-methyl-5-(oxetan-3-yloxy)phenyl)-1H-pyrazole-5-carboxylic Acid] as the molecule, how does the EC50 read?
Answer: Its EC50 is 1 to 5 µM.

Question: How did the EC50 turn out when `Cc1cc(-c2c(C)nn(-c3nc(-c4ccc(Cl)c(Cl)c4)c(SC(C)C)s3)c2C(=O)O)cc(N(C)C)c1` [Compound 99, 1-(4-(3,4-dichlorophenyl)-5-(isopropylthio)thiazol-2-yl)-4-(3-(dimethylamino)-5-methylphenyl)-3-methyl-1H-pyrazole-5-carboxylic acid] was run?
Answer: The EC50 was 5 to 10 µM.

Question: Which EC50 does the source give for `Cc1cc(-c2c(C)nn(-c3nc(-c4ccc(Cl)c(Cl)c4)c(SC(C)C)s3)c2C(=O)O)cc(-n2ccnc2)c1` [Compound 100, 4-(3-(1H-imidazol-1-yl)-5-methylphenyl)-1-(4-(3,4-dichlorophenyl)-5-(isopropylthio)thiazol-2-yl)-3-methyl-1H-pyrazole-5-carboxylic Acid] here?
Answer: Its EC50 is 1 to 5 µM.

Source: patent publication US10537558B2 (Bantam Pharmaceutical, LLC, priority 2015, dated 2020)
